Measured values from patent publication US12220461B2, “Polypeptide-coupled small molecule compound and antiviral application thereof” (Guangzhou Medical University, priority 2023, dated 2025).
Starred links: 1 amine or outer side, 2 acyl side, 3 side chain; linkers in the order of their positions; H or OH if unused. Non-standard residues stand in square brackets, D forms with d. Residues, ends and D or L forms follow the SMILES beside them. ξ: configuration not given here. *: point of attachment. X1 = Cc1ccc(N[*:1])cc1C(=O)[*:2]; X2 = C[C@@H](N*)c1cccc2ccccc12; X3 = S=c1nc(N*)[nH]c2nc[nH]c12; ξR = N=C(N)NCCCC(N)C(=O)O; ξL = CC(C)CC(N)C(=O)O; ξS = NC(CO)C(=O)O

Columns and labels:
[1] = test system: A549 cells, MLE-12 cells and 293T cells
SARS-CoV-2 = type: cell-based
293T cells = settings: same concentration, 24 h
Protocol: 9.1 Plating: 293T cells in logarithmic growth phase are inoculated into a 96-well plate (100 μL/well), triplicate wells are made in each group, and the number of cells in each well is set at 5×10^3. The cells are put in a 5% CO2 incubator at 37° C. for 12 h.
The dosage concentrations are set to 100 μM, 50 μM, 25 μM, 12.5 μM, 6.25 μM and 3.125 μM, and the dosage volume is 2 μL. The control group is added with 2 μL DMSO. Then, they are put in a 5% CO2 incubator at 37° C. for culture.
9.3 After 24 hours, the cells are washed with PBS twice, and then added 100 μL of pre-mixed CCK8 solution (medium: CCK8 working solution=9:1) to each well to avoid introduction of bubbles in the operation. Culture is continued for 2 h in a 5 6% CO2 incubator at 37° C.
9.4 The absorbance D(λ) of each well at the wavelength of 450 nm is determined by the microplate reader. D(λ) values of the negative control group, the control group and the experimental group are analyzed to determine the cell activity. Cell viability reflects the cytotoxicity of the drug. The groups are as follows: • the experimental group (medium containing cells, CCK-8, the drug to be tested); • the control group (medium containing cells, CCK-8, without drug to be tested); and • the negative control group (medium without cells and the substance to be detected, with CCK-8).

PLpro = target: T1, PLpro (Severe acute respiratory syndrome coronavirus 2, UniProt P0DTD1); assay: cell-based; parameters: species or system SARS-CoV-2
T1 construct: expressed in transfected cells; host or cells: 293T cells

Compound | cytotoxicity (CCK8 cell viability) [1] | IC50 for inhibition of CPE induced by SARS-CoV-2 (SARS-CoV-2) | cytotoxicity (CCK8 cell viability) (293T cells) | IC50 (PLpro)
Cc1ccc(N)cc1C(=O)N[C@H](C)c1cccc2ccccc12 [GRL0617, reference compound] | great cytotoxicity | – | – | –
CC(C)CC(NC(=O)C(CCCNC(=N)N)NC(=O)C(N)CO)C(=O)NC(CCCNC(=N)N)C(=O)NCC(=O)NCC(=O)Nc1nc(=S)c2[nH]cnc2[nH]1 (centres unmarked) [RG-6] (H-SRLRGG-X3; configuration not given here) | – | lower than 6-TG | less cytotoxicity than 6-TG | –
Cc1ccc(NC(=O)CNC(=O)CNC(=O)C(CCCNC(=N)N)NC(=O)C(CC(C)C)NC(=O)C(CCCNC(=N)N)NC(=O)C(N)CO)cc1C(=O)N[C@H](C)c1cccc2ccccc12 (some centres unmarked) [RG-17] (H-[ξS][ξR][ξL][ξR]GG[X1]-X2) | does not affect the cell growth | – | – | 13.7 µM
